Source: PubChem BioAssay AID2060513 (Molecular Pharmacology Branch, DTP, NCI, 2025)

System: 299254-011-R-J1-PDC complex spheroids viability
Assay: Anticancer human tumor 299254-011-R-J1-PDC patient-derived melanoma cell line growth inhibition [GQUAD]
Details: for IC50: curve of first compound; for viability, T/C: stronger effect = lower value
Summary of the method: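 Tumor cells were grown as complex spheroids with HUVEC endothelial cells and mesenchymal stem cells as stroma. G-quadruplex stabilizers were combined with targeted agents over half-log dilutions from near the clinical Cmax, or from 10 microM.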

[1] = second compound 0.0316 µM, first compound 0.0316 µM
[2] = second compound 0.0316 µM, first compound 0.316 µM
[3] = second compound 0.1 µM, first compound 0.0316 µM
[4] = second compound 0.1 µM, first compound 0.316 µM
[5] = second compound 0.316 µM, first compound 0.0316 µM
[6] = second compound 0.316 µM, first compound 0.316 µM
[7] = second compound 1 µM, first compound 0.0316 µM
[8] = second compound 1 µM, first compound 0.316 µM
[9] = second compound 3.16 µM, first compound 0.0316 µM
[10] = second compound 3.16 µM, first compound 0.316 µM
[11] = second compound 10 µM, first compound 0.0316 µM
[12] = second compound 10 µM, first compound 0.316 µM
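Further: spheroids exposed to the agents for seven days before readout.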
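Wherever viability, T/C is given: percent viability relative to DMSO vehicle control wells = 100%.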

Molecule `CC1COCCN1c1cc(-c2ccnn2C)c2ccnc(-c3ccn[nH]3)c2n1` (centres undefined) + Cc1[nH]c2ccc(F)cc2c1-c1nc2c3cccnc3c3ncccc3c2[nH]1 has an IC50 (second compound 0.0316 µM) of 180 nM, an IC50 (second compound 0.1 µM) of 177 nM and an IC50 (second compound 0.316 µM) of 245 nM. It also gave an IC50 (second compound 1 µM) of 201 nM, an IC50 (second compound 3.16 µM) of 187 nM and an IC50 (second compound 10 µM) of 88.9 nM. It also gave a viability, T/C [1] of 111%, a viability, T/C (second compound 0.0316 µM, first compound 0.1 µM) of 65% and a viability, T/C [2] of 36.1%. The viability, T/C (second compound 0.0316 µM, first compound 1 µM) was 19.6%, the viability, T/C (second compound 0.0316 µM, first compound 3.16 µM) was 21.5% and the viability, T/C (second compound 0.0316 µM, first compound 10 µM) was 13.1%. The viability, T/C [3] was 80.3%, the viability, T/C (second compound 0.1 µM, first compound 0.1 µM) was 70.3% and the viability, T/C [4] was 29.1%. The viability, T/C (second compound 0.1 µM, first compound 1 µM) was 21.6%, the viability, T/C (second compound 0.1 µM, first compound 3.16 µM) was 17% and the viability, T/C (second compound 0.1 µM, first compound 10 µM) was 12.9%. The viability, T/C [5] was 90%, the viability, T/C (second compound 0.316 µM, first compound 0.1 µM) was 88.4% and the viability, T/C [6] was 38.8%. It also gave a viability, T/C (second compound 0.316 µM, first compound 1 µM) of 22.4%, a viability, T/C (second compound 0.316 µM, first compound 3.16 µM) of 14.2% and a viability, T/C (second compound 0.316 µM, first compound 10 µM) of 15%. The viability, T/C [7] was 93.1%, the viability, T/C (second compound 1 µM, first compound 0.1 µM) was 70.4% and the viability, T/C [8] was 36.5%. For the same molecule, the viability, T/C (second compound 1 µM, first compound 1 µM) was 21.9%, the viability, T/C (second compound 1 µM, first compound 3.16 µM) was 16.4% and the viability, T/C (second compound 1 µM, first compound 10 µM) was 17.4%. The viability, T/C [9] was 84.5%, the viability, T/C (second compound 3.16 µM, first compound 0.1 µM) was 71.8% and the viability, T/C [10] was 31.8%. It also gave a viability, T/C (second compound 3.16 µM, first compound 1 µM) of 14.5%, a viability, T/C (second compound 3.16 µM, first compound 3.16 µM) of 12.2% and a viability, T/C (second compound 3.16 µM, first compound 10 µM) of 15.2%. The viability, T/C [11] was 74.1%, the viability, T/C (second compound 10 µM, first compound 0.1 µM) was 47% and the viability, T/C [12] was 26.7%. It also gave a viability, T/C (second compound 10 µM, first compound 1 µM) of 17.4%, a viability, T/C (second compound 10 µM, first compound 3.16 µM) of 12.1% and a viability, T/C (second compound 10 µM, first compound 10 µM) of 15.4%.

With `CC[C@@]1(O)C(=O)OCc2c1cc1n(c2=O)Cc2cc3c(CN(C)C)c(O)ccc3nc2-1` + Cc1[nH]c2ccc(F)cc2c1-c1nc2c3cccnc3c3ncccc3c2[nH]1 the IC50 (second compound 0.0316 µM) was greater than 316 nM, the IC50 (second compound 0.1 µM) was greater than 316 nM and the IC50 (second compound 0.316 µM) was greater than 316 nM. For the same molecule, the IC50 (second compound 1 µM) was greater than 316 nM, the IC50 (second compound 3.16 µM) was greater than 316 nM and the IC50 (second compound 10 µM) was greater than 316 nM. It also gave a viability, T/C (second compound 0.0316 µM, first compound 0.000999 µM) of 119%, a viability, T/C (second compound 0.0316 µM, first compound 0.00316 µM) of 92.6% and a viability, T/C (second compound 0.0316 µM, first compound 0.00999 µM) of 102%. The viability, T/C [1] was 85.8%, the viability, T/C (second compound 0.0316 µM, first compound 0.0999 µM) was 86% and the viability, T/C [2] was 79.4%. For the same molecule, the viability, T/C (second compound 0.1 µM, first compound 0.000999 µM) was 115%, the viability, T/C (second compound 0.1 µM, first compound 0.00316 µM) was 105% and the viability, T/C (second compound 0.1 µM, first compound 0.00999 µM) was 112%. The viability, T/C [3] was 78.2%, the viability, T/C (second compound 0.1 µM, first compound 0.0999 µM) was 109% and the viability, T/C [4] was 74.8%. For the same molecule, the viability, T/C (second compound 0.316 µM, first compound 0.000999 µM) was 86.2%, the viability, T/C (second compound 0.316 µM, first compound 0.00316 µM) was 88.3% and the viability, T/C (second compound 0.316 µM, first compound 0.00999 µM) was 89.2%. It also gave a viability, T/C [5] of 106%, a viability, T/C (second compound 0.316 µM, first compound 0.0999 µM) of 93.2% and a viability, T/C [6] of 77.7%. For the same molecule, the viability, T/C (second compound 1 µM, first compound 0.000999 µM) was 97%, the viability, T/C (second compound 1 µM, first compound 0.00316 µM) was 103% and the viability, T/C (second compound 1 µM, first compound 0.00999 µM) was 98.2%. For the same molecule, the viability, T/C [7] was 101%, the viability, T/C (second compound 1 µM, first compound 0.0999 µM) was 87.2% and the viability, T/C [8] was 86.9%. For the same molecule, the viability, T/C (second compound 3.16 µM, first compound 0.000999 µM) was 87.2%, the viability, T/C (second compound 3.16 µM, first compound 0.00316 µM) was 116% and the viability, T/C (second compound 3.16 µM, first compound 0.00999 µM) was 95%. The viability, T/C [9] was 111%, the viability, T/C (second compound 3.16 µM, first compound 0.0999 µM) was 96.8% and the viability, T/C [10] was 101%. The viability, T/C (second compound 10 µM, first compound 0.000999 µM) was 95%, the viability, T/C (second compound 10 µM, first compound 0.00316 µM) was 97.8% and the viability, T/C (second compound 10 µM, first compound 0.00999 µM) was 85.1%. The viability, T/C [11] was 85.3%, the viability, T/C (second compound 10 µM, first compound 0.0999 µM) was 116% and the viability, T/C [12] was 79.8%.
